{"source": "paper PMC10945555", "about": "“Improving Activity of New Arylurea Agents against Multidrug-Resistant and Biofilm-Producing Staphylococcus epidermidis” (ACS Medicinal Chemistry Letters, 2024)", "key": {"[1]": {"tested_on": "Staphylococcus epidermidis ATCC 12228", "experiment": "MIC, broth microdilution, MSSE reference strain", "format": "cell-based", "settings": "ATCC12228, Staphylococcus epidermidis ATCC 12228, read-out: MIC MSSE", "from_the_text": "These strains included susceptible, multidrug-resistant, and biofilm-producing strains of S. epidermidis and S. aureus (MSSE, MDR/BPSE, and MDR/BPSA, respectively). The cornerstone antibiotic linezolid served as a positive control (Table 1). The impact of structural modifications at the aryloxy fragment and the aromatic moiety bound to the propyl linker on the inhibitory activity was initially investigated. […] Further optimization focused on evaluating the impact of the type of substituent and its position on the arylsulfonamide fragment’s activity.\n2 Biological assay protocols\nMicrobiological tests were carried out under aseptic conditions in a laminar chamber of the 2nd […]\n(BioTectum 1.2, Alchem Poland). The assessment of antimicrobial activity was carried out for final compounds in the form of free bases, soluble in DMSO (Merck, Germany), at the initial […]\nconcentration of 1 mg/mL. […]\nwere provided by Cayman Chemical, USA.\nThe activity of all newly synthesized compounds was tested in vitro on a panel of selected reference strains from the American Type Culture Collection (ATCC) of Gram-positive […]\n2.2 Effect of evaluated compounds on planktonic cells\nThe susceptibility of three reference bacterial strains (Staphylococcus epidermidis ATCC […]\nTable S1) and 81 clinical MDR S. epidermidis (Table S2) to the tested compounds was assessed by determining the MIC value (Minimal Inhibitory Concentration) by microdilution in a liquid medium in 96-well flat-bottom cell culture plates (Nest Biotechnology Scientific, USA). The antibacterial properties of the compo unds were tested in the concentration range from 50 µg/mL to 0.1 µg/mL by making a series of double dilutions of the compound in liquid Mueller -Hinton II Broth Cation Adjusted (MHB II, BBL TM, USA) according to the European Committee on […]\nAntimicrobial Susceptibility Testing guidelines (EUCAST).2,3 The determinations were performed twice. The MIC50 and MIC90 values were determined for each of the tested"}, "H9c2 cells": {"tested_on": "H9c2 cells", "experiment": "Cytotoxicity, MTT assay, cardiomyocytes", "format": "cell-based", "settings": "Rattus norvegicus, 24 h, n = 3", "experimental": "(§1) The following cell models were used in the research: rat cardiomyocytes (H9c2 line) and human skin fibroblasts (BJ line). All cell lines used in the work are commercially available and were purchased from ATCC banks (the American Type Culture Collection, Manassas, VI, USA). Cell cultures were carried out in an incubator under standard conditions (37°C, 5% CO 2).\n(§2) Culture media (Dulbecco's Modified Eagle's Medium -DMEM (H9c2) and Eagle's Minimum Essential Medium-EMEM (BJ) were supplemented with 10% bovine serum and a 1% mixture of penicillin and streptomycin antibiotics. […]\n(§3) doxorubicin (a cytotoxic drug) were used as reference and positive control, respectively. […]\n(§4) incubated with studied compound in appropriate concentration for next 24 h. Then MTT solution (5 mg/mL) was transferred into culture medium of incubated cells. After 3 h, once dark crystals of formazan were produced in cells, medium was aspirated and 100 μ L of DMSO was added to dissolve formazan. Absorbance of DMSO solution was read on a multiwell plate reader (Spectra Max iD3, Molecular Devices) at 570 nm. In order to determine viability, absorbance of experimental wells was divided by absorbance of contro l well (not treated) and multiplied by 100 (%). Three separate experiments were performed. IC 50 was calculated using non-linear regression method in OriginPro software. […]"}, "BJ cells": {"tested_on": "BJ cells", "experiment": "Cytotoxicity, MTT assay, skin fibroblasts", "format": "cell-based, human", "settings": "Homo sapiens, MTT, 24 h, n = 3", "experimental": "as §1, §2, §3\nas §4, with “solution” for “incubated with studied compound in appropriate concentration for next 24 h. Then MTT solution”"}, "[2]": {"tested_on": "biofilm-producing Staphylococcus epidermidis strains", "experiment": "Inhibition of biofilm formation (MBIC, resazurin)", "format": "cell-based", "experimental": "After 24 hours incubation each well of\nconcentration of 4 mg/mL was added. […]"}}, "data": [{"smiles": "O=S(=O)(NC1CCN(CCC(Oc2ccc(C(F)(F)F)cc2)c2cccs2)CC1)c1cccc(C(F)(F)F)c1", "note": "(stereo not drawn) [Compound 21]", "values": [{"measurement": "MIC", "setting": "[1]", "result": "≤ 6.25", "unit": "µg/mL"}]}, {"smiles": "O=S(=O)(NC1CCN(CCC(Oc2ccc(C(F)(F)F)cc2)c2cccs2)CC1)c1cccc(Cl)c1", "note": "(stereo not drawn) [Compound 14]", "values": [{"measurement": "IC50", "setting": "H9c2 cells", "result": 28, "unit": "µg/mL"}, {"measurement": "IC50", "setting": "BJ cells", "result": 9.9, "unit": "µg/mL"}, {"measurement": "MBIC", "setting": "[2]; S. epidermidis ATCC 35984 (Table S4)", "result": 31.25, "unit": "µg/mL"}, {"measurement": "MBIC50", "setting": "[2]; Table S4 strains", "result": 125, "unit": "µg/mL"}, {"measurement": "MBIC", "setting": "[2]; clinical strain 1 (Table S4)", "result": 31.25, "unit": "µg/mL"}, {"measurement": "MBIC", "setting": "[2]; clinical strain 2 (Table S4)", "result": 125, "unit": "µg/mL"}, {"measurement": "MBIC", "setting": "[2]; clinical strain 3 (Table S4)", "result": 125, "unit": "µg/mL"}, {"measurement": "MBIC", "setting": "[2]; clinical strain 4 (Table S4)", "result": 125, "unit": "µg/mL"}, {"measurement": "MBIC", "setting": "[2]; clinical strain 5 (Table S4)", "result": 62.5, "unit": "µg/mL"}, {"measurement": "MBIC", "setting": "[2]; clinical strain 6 (Table S4)", "result": 125, "unit": "µg/mL"}, {"measurement": "MBIC", "setting": "[2]; clinical strain 7 (Table S4)", "result": 125, "unit": "µg/mL"}, {"measurement": "MBIC", "setting": "[2]; clinical strain 8 (Table S4)", "result": 15.6, "unit": "µg/mL"}, {"measurement": "MBIC", "setting": "[2]; clinical strain 9 (Table S4)", "result": 125, "unit": "µg/mL"}, {"measurement": "MBIC", "setting": "[2]; clinical strain 11 (Table S4)", "result": 125, "unit": "µg/mL"}, {"measurement": "MBIC", "setting": "[2]; clinical strain 12 (Table S4)", "result": 125, "unit": "µg/mL"}, {"measurement": "MBIC", "setting": "[2]; clinical strain 13 (Table S4)", "result": 62.5, "unit": "µg/mL"}, {"measurement": "MBIC", "setting": "[2]; clinical strain 15 (Table S4)", "result": 125, "unit": "µg/mL"}, {"measurement": "MBIC", "setting": "[2]; clinical strain 16 (Table S4)", "result": 31.25, "unit": "µg/mL"}, {"measurement": "MBIC", "setting": "[2]; clinical strain 17 (Table S4)", "result": 62.5, "unit": "µg/mL"}, {"measurement": "MBIC", "setting": "[2]; clinical strain 19 (Table S4)", "result": 31.25, "unit": "µg/mL"}, {"measurement": "MBIC", "setting": "[2]; clinical strain 21 (Table S4)", "result": 125, "unit": "µg/mL"}, {"measurement": "MBIC", "setting": "[2]; clinical strain 22 (Table S4)", "result": 125, "unit": "µg/mL"}, {"measurement": "MBIC", "setting": "[2]; clinical strain 23 (Table S4)", "result": 7.8, "unit": "µg/mL"}, {"measurement": "MBIC", "setting": "[2]; clinical strain 25 (Table S4, Figure 2)", "result": 31.25, "unit": "µg/mL"}, {"measurement": "MBIC", "setting": "[2]; clinical strain 26 (Table S4)", "result": 125, "unit": "µg/mL"}, {"measurement": "MBIC", "setting": "[2]; clinical strain 27 (Table S4)", "result": 250, "unit": "µg/mL"}, {"measurement": "MBIC", "setting": "[2]; clinical strain 28 (Table S4)", "result": 62.5, "unit": "µg/mL"}, {"measurement": "MBIC", "setting": "[2]; clinical strain 29 (Table S4)", "result": 62.5, "unit": "µg/mL"}, {"measurement": "MBIC", "setting": "[2]; clinical strain 30 (Table S4)", "result": 62.5, "unit": "µg/mL"}, {"measurement": "MBIC", "setting": "[2]; clinical strain 33 (Table S4)", "result": 125, "unit": "µg/mL"}, {"measurement": "MBIC", "setting": "[2]; clinical strain 35 (Table S4)", "result": 125, "unit": "µg/mL"}, {"measurement": "MBIC", "setting": "[2]; clinical strain 36 (Table S4)", "result": 62.5, "unit": "µg/mL"}, {"measurement": "MBIC", "setting": "[2]; clinical strain 37 (Table S4)", "result": 125, "unit": "µg/mL"}, {"measurement": "MBIC", "setting": "[2]; clinical strain 39 (Table S4)", "result": 15.6, "unit": "µg/mL"}, {"measurement": "MBIC", "setting": "[2]; clinical strain 40 (Table S4)", "result": 31.25, "unit": "µg/mL"}, {"measurement": "MBIC", "setting": "[2]; clinical strain 41 (Table S4)", "result": 125, "unit": "µg/mL"}, {"measurement": "MBIC", "setting": "[2]; clinical strain 42 (Table S4)", "result": 125, "unit": "µg/mL"}, {"measurement": "MBIC", "setting": "[2]; clinical strain 43 (Table S4)", "result": 250, "unit": "µg/mL"}, {"measurement": "MBIC", "setting": "[2]; clinical strain 44 (Table S4)", "result": 62.5, "unit": "µg/mL"}, {"measurement": "MBIC", "setting": "[2]; clinical strain 45 (Table S4)", "result": 125, "unit": "µg/mL"}, {"measurement": "MBIC", "setting": "[2]; clinical strain 46 (Table S4)", "result": 125, "unit": "µg/mL"}, {"measurement": "MBIC", "setting": "[2]; clinical strain 47 (Table S4)", "result": 62.5, "unit": "µg/mL"}, {"measurement": "MBIC", "setting": "[2]; clinical strain 49 (Table S4)", "result": 31.25, "unit": "µg/mL"}, {"measurement": "MBIC", "setting": "[2]; clinical strain 51 (Table S4)", "result": 125, "unit": "µg/mL"}, {"measurement": "MBIC", "setting": "[2]; clinical strain 55 (Table S4)", "result": 125, "unit": "µg/mL"}, {"measurement": "MBIC", "setting": "[2]; clinical strain 58 (Table S4)", "result": 125, "unit": "µg/mL"}, {"measurement": "MBIC", "setting": "[2]; clinical strain 59 (Table S4)", "result": 125, "unit": "µg/mL"}, {"measurement": "MBIC", "setting": "[2]; clinical strain 65 (Table S4)", "result": 125, "unit": "µg/mL"}, {"measurement": "MBIC", "setting": "[2]; clinical strain 66 (Table S4)", "result": 125, "unit": "µg/mL"}, {"measurement": "MBIC", "setting": "[2]; clinical strain 67 (Table S4)", "result": 125, "unit": "µg/mL"}, {"measurement": "MBIC", "setting": "[2]; clinical strain 70 (Table S4)", "result": 125, "unit": "µg/mL"}, {"measurement": "MBIC", "setting": "[2]; clinical strain 73 (Table S4)", "result": 31.25, "unit": "µg/mL"}, {"measurement": "MBIC", "setting": "[2]; clinical strain 74 (Table S4)", "result": 125, "unit": "µg/mL"}, {"measurement": "MBIC", "setting": "[2]; clinical strain 75 (Table S4)", "result": 31.25, "unit": "µg/mL"}, {"measurement": "MBIC", "setting": "[2]; clinical strain 78 (Table S4)", "result": 15.6, "unit": "µg/mL"}, {"measurement": "MBIC", "setting": "[2]; clinical strain 79 (Table S4)", "result": 31.25, "unit": "µg/mL"}]}]}
